Test [1] has as its target T1, STAT5b Gln636Pro/Met639Asn/Phe640Leu/Met644Lys/Asn664Ser/Tyr679Phe (STAT5b‐6M) (Homo sapiens, UniProt P51692, F640L/M639N/M644K/N664S/Q636P/Y679F).
T1 construct: made in house
T1 sequence (P51692 1-787 Q636P/M639N/F640L/M644K/N664S/Y679F): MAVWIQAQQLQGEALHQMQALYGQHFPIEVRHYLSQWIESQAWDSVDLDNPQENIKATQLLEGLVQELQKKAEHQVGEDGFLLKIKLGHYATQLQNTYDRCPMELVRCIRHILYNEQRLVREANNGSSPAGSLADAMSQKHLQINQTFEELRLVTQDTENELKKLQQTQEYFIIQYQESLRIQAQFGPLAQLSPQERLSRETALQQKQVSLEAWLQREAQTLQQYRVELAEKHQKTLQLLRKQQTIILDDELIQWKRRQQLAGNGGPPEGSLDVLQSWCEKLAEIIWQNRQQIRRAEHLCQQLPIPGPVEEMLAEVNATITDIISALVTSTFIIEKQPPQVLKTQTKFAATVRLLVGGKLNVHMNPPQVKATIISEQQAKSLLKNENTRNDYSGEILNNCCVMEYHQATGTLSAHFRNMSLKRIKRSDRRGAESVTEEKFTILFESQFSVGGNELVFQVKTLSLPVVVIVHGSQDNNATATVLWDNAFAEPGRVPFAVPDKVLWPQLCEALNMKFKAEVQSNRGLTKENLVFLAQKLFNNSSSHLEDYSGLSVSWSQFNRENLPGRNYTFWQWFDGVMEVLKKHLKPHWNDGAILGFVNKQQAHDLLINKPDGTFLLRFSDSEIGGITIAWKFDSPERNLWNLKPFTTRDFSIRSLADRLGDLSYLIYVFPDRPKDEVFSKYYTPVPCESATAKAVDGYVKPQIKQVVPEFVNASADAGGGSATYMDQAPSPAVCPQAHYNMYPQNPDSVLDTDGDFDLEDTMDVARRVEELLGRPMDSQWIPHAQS
Kind of test: Fluorescence polarization assay, mutant STAT5b-6M. Format: binding. On the technique in general: Polarisation of emitted light reports the rotation of a fluorescent probe.

The target in test [2] is T2, STAT5b Arg566Trp/Met639Asn/Met644Lys (STAT5b‐3M) (Homo sapiens, UniProt P51692, M639N/M644K/R566W).
T2 construct: made in house
T2 sequence (P51692 1-787 R566W/M639N/M644K): T1 sequence (P51692 1-787 Q636P/M639N/F640L/M644K/N664S/Y679F) with R566W, P636Q, L640F, S664N, F679Y
Kind of test: Fluorescence polarization assay, triple mutant STAT5b-3M. Format: binding.

For another test, the target named is T3, STAT5b (Homo sapiens, UniProt P51692).
T3 construct: made in house
T3 sequence (P51692 1-787): T1 sequence (P51692 1-787 Q636P/M639N/F640L/M644K/N664S/Y679F) with P636Q, N639M, L640F, K644M, S664N, F679Y
Kind of test: Fluorescence polarization competitive binding assay, STAT5b. The conditions noted are these: read-out: STAT5b inhibition at 200 μM.

Substitutions are numbered along the chain they refer to.

As a reminder, the inhibition is how much of the control response was suppressed. Usually IC50 stands for the midpoint of a concentration-inhibition curve. Read a high IC50 as a need for much substance. For orientation: Ki means the dissociation constant of the complex between target and ligand, obtained from inhibition or displacement. On to `COc1cc(-c2cc(OP(=O)(O)O)cc(-c3cc(OC)c(OC)c(OC)c3)c2)cc(OC)c1OC` [Compound 20], for which the inhibition at 200 µM in test [1] (FP assay, 200 µM) is 46 ± 8%. Further, the “activity against STAT5b-6M lower than activity against wild-type STAT5a” value in test [1] (FP assays) is “approximately 10 fold”. For the same compound, in test [2] (FP assay), the IC50 was 101 ± 11 µM and the Ki turned out to be 49 ± 5.4 µM. Besides, the “activity gap between STAT5b-3M and STAT5b-7M” value in test [2] (FP assays) turned out to be 2.5 fold. Also, the inhibition at 200 µM at STAT5b came to 37 ± 5%.
